Results taken from patent US20260053811A1, “METHODS OF TREATING HYPERTENSION IN OBESE SUBJECTS” (Mineralys Therapeutics, Inc., priority 2022, published 2026).

Tested on: hypertensive subjects
Assay: Seated automated office blood pressure (AOBP) in randomized, placebo-controlled, dose-ranging study
Type: in vivo, human
Parameters: Difference from placebo in change in blood pressure: unit not given here
Procedure: A randomized, double-blinded, placebo-controlled, dose-ranging, multicenter study was conducted to evaluate the effect of orally administered Compound A HBr on blood pressure for the treatment of hypertension in male and female subjects ≥18 years of age.
The study consists of two parts. For enrollment into Part 1 of the study, a subject's value of plasma renin activity (PRA) must be ≤1 ng/mL/h based on morning measurement. If the value of PRA >1 ng/mL/h based on morning measurement, then subjects may be eligible to enter Part 2 of the study.
For Part 1, 163 enrolled subjects ≥18 years of age were randomized into 6 equal treatment groups (1:1:1:1:1:1) to 12.5 mg BID, 25 mg BID, 12.5 mg QD, 50 mg QD, 100 mg QD, or placebo. After a review of interim clinical data, the 2 lowest dose levels (12.5 mg QD and 12.5 mg BID) were stopped for future randomization due to a lack of consistent meaningful reduction of blood pressure, but the patients randomized to that point remained in the study through completion. Thus, after the review of interim clinical data, subjects were randomized into 4 equal treatment groups (1:1:1:1) to 25 mg BID, 50 mg QD, 100 mg QD, or placebo.
For Part 2, 36 enrolled subjects ≥18 years of age were randomized (5:1) to either 100 mg QD Compound A HBr or placebo such that the Compound A HBr treatment group consisted of approximately 30 subjects and the placebo treatment group will consist of approximately 6 subjects.
Subjects orally administered the assigned study drug (Compound A HBr or placebo) according to the assigned dosing regimen for 8 weeks beginning on Study Day 1. All subjects in Part 1 (regardless of dosing group) received BID dosing to preserve the integrity of the blind; active drug is administered as the morning dose for all QD dose groups. Subjects returned to the research facility or were seen by the clinical investigator or approved home health care professional at the end of Study Weeks 1, 2, 3, 4, 5, 6, 7, and 8 (±2 days) for protocol-defined efficacy and safety assessments and procedures, assessment of adverse events (AEs), and confirmation of compliance with study drug usage. Subjects also completed a telephone visit and blood pressure (BP) check at home approximately 3 days post last dose of study drug. Subjects attended up to 14 full clinic visits, including a pre-Screening visit, a Screening/start of Placebo Run-in visit, a second visit during Placebo Run-in, a clinic visit to initiate the ABPM procedure, a Randomization visit, 8 weekly visits during double-blind treatment, and an end-of-study visit scheduled 4 weeks after the last study treatment for final efficacy and safety assessments.
An automated oscillometric sphygmomanometer device was used to measure the subjects' systolic and diastolic blood pressure in office after approximately 5 minutes of rest in the seated position.
The primary endpoint is the change in office-measured (mean of last 2 of 5 unattended measurements using an automated oscillometric sphygmomanometer device after approximately 5 minutes of rest in the seated position) systolic blood pressure (SBP) from baseline to the end of Study Week 8.
Secondary endpoints of this study were: • (a) Change in 24-hour ambulatory blood pressure monitoring (ABPM) parameters (systolic and diastolic) from baseline to the end of Study Week 7. • (b) Change in office-measured SBP from baseline to the end of Study Weeks 1, 2, 3, 4, 5, 6, and 7. • (c) Change in office-measured diastolic blood pressure (DBP) from baseline to the end of Study Weeks 1, 2, 3, 4, 5, 6, 7, and 8. • (d) Proportion of subjects who achieve office-measured BP of ≤130/80 mm Hg by the end of Study Week 8.

[1] = 12.5 mg BID, Week 1, Part 1, FAS
[2] = 12.5 mg BID, Week 2, Part 1, FAS
[3] = 12.5 mg BID, Week 3, Part 1, FAS
[4] = 12.5 mg BID, Week 4, Part 1, FAS
[5] = 12.5 mg BID, Week 5, Part 1, FAS
[6] = 12.5 mg BID, Week 6, Part 1, FAS
[7] = 12.5 mg BID, Week 7, Part 1, FAS
[8] = 12.5 mg BID, Week 8, Part 1, FAS

## CC(=O)N[C@H]1CC[C@H](NC(=O)CN2CCN(c3nncc(-c4ccc(C)cc4)n3)CC2)CC1 [Compound A HBr]
12.5 mg BID, BMI 25-30
  Difference from placebo in change in blood pressure: −3.5
12.5 mg BID, BMI >30
  Difference from placebo in change in blood pressure: −10.1
12.5 mg BID, Thiazide No
  Difference from placebo in change in blood pressure: −1.4
12.5 mg BID, Thiazide Yes
  Difference from placebo in change in blood pressure: −10.6
[1]
  Seated AOBP DBP change from baseline (CFB), Mean (SD): −5.95 (6.17) mmHg
  Seated AOBP DBP, Mean (SD): 75.59 (8.32) mmHg
  Seated AOBP SBP change from baseline (CFB), Mean (SD): −8.89 (11.51) mmHg
  Seated AOBP SBP, Mean (SD): 135.68 (14.48) mmHg
[2]
  Seated AOBP DBP change from baseline (CFB), Mean (SD): −7.32 (9.14) mmHg
  Seated AOBP DBP, Mean (SD): 74.23 (10.15) mmHg
  Seated AOBP SBP change from baseline (CFB), Mean (SD): −11.98 (13.02) mmHg
  Seated AOBP SBP, Mean (SD): 132.59 (14.70) mmHg
[3]
  Seated AOBP DBP change from baseline (CFB), Mean (SD): −0.93 (7.51) mmHg
  Seated AOBP DBP, Mean (SD): 79.95 (9.17) mmHg
  Seated AOBP SBP change from baseline (CFB), Mean (SD): −5.80 (9.60) mmHg
  Seated AOBP SBP, Mean (SD): 137.70 (15.37) mmHg
[4]
  LSM Δ with Placebo, seated AOBP DBP (MMRM): −4.48 mmHg
  Modelled (MMRM) LSM (SEM) change from baseline, seated AOBP DBP: −5.02 (1.67) mmHg
  Seated AOBP DBP change from baseline (CFB), Mean (SD): −4.18 (10.21) mmHg
  Seated AOBP DBP, Mean (SD): 75.79 (10.69) mmHg
  Seated AOBP SBP change from baseline (CFB), Mean (SD): −10.71 (12.27) mmHg
  Seated AOBP SBP, Mean (SD): 132.95 (15.79) mmHg
[5]
  Seated AOBP DBP change from baseline (CFB), Mean (SD): −7.00 (7.81) mmHg
  Seated AOBP DBP, Mean (SD): 73.50 (10.13) mmHg
  Seated AOBP SBP change from baseline (CFB), Mean (SD): −12.53 (13.34) mmHg
  Seated AOBP SBP, Mean (SD): 131.44 (13.13) mmHg
[6]
  Seated AOBP DBP change from baseline (CFB), Mean (SD): −6.47 (6.39) mmHg
  Seated AOBP DBP, Mean (SD): 74.95 (10.29) mmHg
  Seated AOBP SBP change from baseline (CFB), Mean (SD): −14.00 (14.80) mmHg
  Seated AOBP SBP, Mean (SD): 129.79 (15.24) mmHg
[7]
  Seated AOBP DBP change from baseline (CFB), Mean (SD): −5.76 (7.62) mmHg
  Seated AOBP DBP, Mean (SD): 74.21 (9.64) mmHg
  Seated AOBP SBP change from baseline (CFB), Mean (SD): −11.76 (13.06) mmHg
  Seated AOBP SBP, Mean (SD): 131.89 (11.93) mmHg
[8]
  LSM Δ from Placebo, change from baseline in seated AOBP SBP (MMRM): −7.2 mmHg
  LSM Δ with Placebo, seated AOBP DBP (MMRM): −3.84 mmHg
  Modelled (MMRM) LSM (SEM) change from baseline, seated AOBP DBP: −5.47 (2.02) mmHg
  Modelled (MMRM) LSM (SEM) change from baseline, seated AOBP SBP: −11.30 (3.15) mmHg
  Seated AOBP DBP change from baseline (CFB), Mean (SD): −5.84 (8.78) mmHg
  Seated AOBP DBP, Mean (SD): 75.21 (10.07) mmHg
  Seated AOBP SBP change from baseline (CFB), Mean (SD): −13.79 (17.70) mmHg
  Seated AOBP SBP, Mean (SD): 131.89 (12.93) mmHg
  Subjects with seated AOBP SBP/DBP ≤130/80 mmHg: No: 15 (68.2) n (%)
  Subjects with seated AOBP SBP/DBP ≤130/80 mmHg: Yes: 7 (31.8) n (%)
12.5 mg QD, BMI 25-30
  Difference from placebo in change in blood pressure: −.14
